Measurements reported in BindingDB's records for doi:10.1016/j.bioorg.2016.07.006 (Dumlupinar University, 2016).

How the values were obtained:
Carbonic anhydrase 1 = Carbonic anhydrase 1 (Homo sapiens, UniProt P00915); test: In vitro Carbonic Anhydrase Inhibition Assay
Procedure: (§1) CA activity was measured according to the method described by Verpoorte et al. in inhibition studies, spectrophotometrically [Biochem., 242:4221-4229]. The reaction mixture contains 50 mM Tris-SO4 buffer (pH = 7.4), 3 mM 4-nitrophenylacetate and enzyme solution in 1 ml total volume. A reference measurement was done by using the same cuvette without enzyme solution. The measurement was repeated in triplicate at each concentration of 5-amino-1,3,4-thiadiazole-2-sulfonamide containing pyrazole derivatives.

Carbonic anhydrase 2 = Carbonic anhydrase 2 (Homo sapiens, UniProt P00918); test: In vitro Carbonic Anhydrase Inhibition Assay
Procedure: as §1

Carbonic anhydrase 1, sequence (P00915 whole entry): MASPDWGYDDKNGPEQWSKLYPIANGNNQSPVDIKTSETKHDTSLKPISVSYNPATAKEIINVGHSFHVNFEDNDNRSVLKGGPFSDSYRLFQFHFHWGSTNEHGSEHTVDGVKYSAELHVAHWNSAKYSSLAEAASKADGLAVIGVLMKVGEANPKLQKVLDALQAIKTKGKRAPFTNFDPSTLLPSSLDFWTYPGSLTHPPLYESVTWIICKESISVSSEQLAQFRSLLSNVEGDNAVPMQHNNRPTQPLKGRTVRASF

| SMILES | Ki (Carbonic anhydrase 1) [nM] | Ki (Carbonic anhydrase 2) [nM] |
| --- | --- | --- |
| NS(=O)(=O)c1nnc(NC(=O)c2nn(-c3cccc(NN=C(C(=O)c4ccccc4)C(=O)c4ccccc4)c3)c(-c3ccccc3)c2C(=O)Nc2nnc(S(N)(=O)=O)s2)s1 [1-(3-(2-(1,3-Dioxo-1,3-diphenylpropan-2-ylidene)hydrazinyl)phenyl)-5-phenyl-N3,N4-bis(5-sulfamoyl-1,3,4-thiadiazol-2-yl)-1Hpyrazole-3,4-dicarboxamide (8)] | 4000 | 878 |
| CC(=O)/C(=N/Nc1cccc(-n2nc(C(=O)Nc3nnc(S(N)(=O)=O)s3)c(C(=O)Nc3nnc(S(N)(=O)=O)s3)c2-c2ccccc2)c1)C(=O)c1ccccc1 [1-(3-(2-(1,3-Dioxo-1-phenylbutan-2-ylidene)hydrazinyl)phenyl)-5-phenyl-N3,N4-bis(5-sulfamoyl-1,3,4-thiadiazol-2-yl)-1H-pyrazole-3,4-dicarboxamide (6)] | 119 | 119 |
| CC1(C)CC(=O)C(=NNc2cccc(-n3nc(C(=O)Nc4nnc(S(N)(=O)=O)s4)c(C(=O)Nc4nnc(S(N)(=O)=O)s4)c3-c3ccccc3)c2)C(=O)C1 [1-(3-((2-Hydroxy-4,4-dimethyl-6-oxocyclohex-1-en-1-yl)diazenyl)phenyl)-5-phenyl-N3,N4-bis(5-sulfamoyl-1,3,4-thiadiazol-2-yl)-1H-pyrazole-3,4-dicarboxamide (14)] | 787 | 288 |
| NS(=O)(=O)c1nnc(NC(=O)c2nn(-c3cccc(/N=N/c4c(O)ccc5ccccc45)c3)c(-c3ccccc3)c2C(=O)Nc2nnc(S(N)(=O)=O)s2)s1 [1-(3-((2-Hydroxynaphthalen-1-yl)diazenyl)phenyl)-5-phenyl-N3,N4-bis(5-sulfamoyl-1,3,4-thiadiazol-2-yl)-1H-pyrazole-3,4-dicarboxamide (4)] | 1660 | 411 |
| CCOC(=O)/C(=N\Nc1cccc(-n2nc(C(=O)Nc3nnc(S(N)(=O)=O)s3)c(C(=O)Nc3nnc(S(N)(=O)=O)s3)c2-c2ccccc2)c1)C(C)=O [Ethyl 3-oxo-2-(2-(3-(5-phenyl-3,4-bis((5-sulfamoyl-1,3,4-thiadiazol-2-yl)carbamoyl)-1H-pyrazol-1-yl)phenyl)hydrazono)butanoate (7)] | 710 | 208 |
| COC(=O)C(/N=N/c1cccc(-n2nc(C(=O)Nc3nnc(S(N)(=O)=O)s3)c(C(=O)Nc3nnc(S(N)(=O)=O)s3)c2-c2ccccc2)c1)S(=O)(=O)c1ccccc1 (centres undefined) [Methyl 2-((3-(5-phenyl-3,4-bis((5-sulfamoyl-1,3,4-thiadiazol-2-yl)carbamoyl)-1H-pyrazol-1-yl)phenyl)diazenyl)-2-(phenylsulfonyl)acetate (15)] | 318 | 92 |
| CC(=O)/C(=N/Nc1cccc(-n2nc(C(=O)Nc3nnc(S(N)(=O)=O)s3)c(C(=O)Nc3nnc(S(N)(=O)=O)s3)c2-c2ccccc2)c1)C(=O)OC(C)(C)C [tert-Butyl 3-oxo-2-(2-(3-(5-phenyl-3,4-bis((5-sulfamoyl-1,3,4-thiadiazol-2-yl)carbamoyl)-1H-pyrazol-1-yl)phenyl)hydrazono)butanoate (12)] | 522 | 149 |

Results, then the compound that gave them:

| Ki (Carbonic anhydrase 1) [nM] | Ki (Carbonic anhydrase 2) [nM] | SMILES |
| --- | --- | --- |
| 767 | 494 | CC(=O)C(=NNc1cccc(-n2nc(C(=O)Nc3nnc(S(N)(=O)=O)s3)c(C(=O)Nc3nnc(S(N)(=O)=O)s3)c2-c2ccccc2)c1)C(C)=O [1-(3-(2-(2,4-Dioxopentan-3-ylidene)hydrazinyl)phenyl)-5-phenyl-N3,N4-bis(5-sulfamoyl-1,3,4-thiadiazol-2-yl)-1H-pyrazole-3,4-dicarboxamide (5)] |
| 508 | 157 | NS(=O)(=O)c1nnc(NC(=O)c2nn(-c3cccc(NN=C4C(=O)CCCC4=O)c3)c(-c3ccccc3)c2C(=O)Nc2nnc(S(N)(=O)=O)s2)s1 [1-(3-((2-Hydroxy-6-oxocyclohex-1-en-1-yl)diazenyl)phenyl)-5-phenyl-N3,N4-bis(5-sulfamoyl-1,3,4-thiadiazol-2-yl)-1H-pyrazole-3,4-dicarboxamide (13)] |
| 461 | 203 | CCOC(=O)C(=NNc1cccc(-n2nc(C(=O)Nc3nnc(S(N)(=O)=O)s3)c(C(=O)Nc3nnc(S(N)(=O)=O)s3)c2-c2ccccc2)c1)C(=O)OCC [Diethyl 2-(2-(3-(5-phenyl-3,4-bis((5-sulfamoyl-1,3,4-thiadiazol-2-yl)carbamoyl)-1H-pyrazol-1-yl)phenyl)hydrazono)malonate (10)] |
| 246 | 84 | CCCC(=O)/C(=N/Nc1cccc(-n2nc(C(=O)Nc3nnc(S(N)(=O)=O)s3)c(C(=O)Nc3nnc(S(N)(=O)=O)s3)c2-c2ccccc2)c1)C(=O)OCC [Ethyl 3-oxo-2-(2-(3-(5-phenyl-3,4-bis((5-sulfamoyl-1,3,4-thiadiazol-2-yl)carbamoyl)-1H-pyrazol-1-yl)phenyl)hydrazono)hexanoate (11)] |
| 487 | 435 | CCOC(=O)/C(=N\Nc1cccc(-n2nc(C(=O)Nc3nnc(S(N)(=O)=O)s3)c(C(=O)Nc3nnc(S(N)(=O)=O)s3)c2-c2ccccc2)c1)C(=O)c1ccccc1 [Ethyl 3-oxo-3-phenyl-2-(2-(3-(5-phenyl-3,4-bis((5-sulfamoyl-1,3,4-thiadiazol-2-yl)carbamoyl)-1H-pyrazol-1-yl)phenyl)hydrazono)propanoate (9)] |
